Results taken from PMC9005681, “Use of AD Informer Set compounds to explore validity of novel targets in Alzheimer's disease pathology” (Alzheimer's & Dementia : Translational Research & Clinical …, 2022).
Values joined by “and” are separate entries in the source; they are usually repeats but may differ in a detail not shown here. Identical values can stand only once.

How the values were obtained:
Assay in all cases: PDSP GPCR panel primary binding assays at 10 μM
[1] = target: T1, cloned human or rodent CNS receptors, channels, and transporters (PDSP panel) (Homo sapiens, UniProt P11229); conditions: M1, primary assay
T1 construct: expressed in transfected cells
T1 sequence (P11229 1-460): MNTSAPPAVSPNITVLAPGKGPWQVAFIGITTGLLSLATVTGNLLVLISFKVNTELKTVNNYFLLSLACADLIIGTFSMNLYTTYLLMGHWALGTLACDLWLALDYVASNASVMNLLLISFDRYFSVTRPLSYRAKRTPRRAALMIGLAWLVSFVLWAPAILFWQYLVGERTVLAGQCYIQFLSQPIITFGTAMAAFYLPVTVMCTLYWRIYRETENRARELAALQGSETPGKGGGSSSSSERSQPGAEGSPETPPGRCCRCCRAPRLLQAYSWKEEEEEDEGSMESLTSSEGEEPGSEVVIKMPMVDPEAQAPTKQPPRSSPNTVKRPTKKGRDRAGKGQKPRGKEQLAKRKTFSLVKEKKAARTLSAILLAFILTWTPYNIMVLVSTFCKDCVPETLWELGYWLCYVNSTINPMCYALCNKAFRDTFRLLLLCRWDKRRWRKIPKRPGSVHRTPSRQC
In short: (§1)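 PDSP panel of 46–47 cloned human or rodent CNS receptors, channels and transporters; radioligand displacement by compound at 10 μM, in quadruplicate. Where average displacement exceeded 50%, secondary binding followed as 11-point dose-response in triplicate (none for H3, PBR or GABAA).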

[2] = target: T2, cloned human or rodent CNS receptors, channels, and transporters (PDSP panel) (Homo sapiens, UniProt P14416); conditions: D2, primary assay
T2 construct: expressed in transfected cells
T2 sequence (P14416 whole entry): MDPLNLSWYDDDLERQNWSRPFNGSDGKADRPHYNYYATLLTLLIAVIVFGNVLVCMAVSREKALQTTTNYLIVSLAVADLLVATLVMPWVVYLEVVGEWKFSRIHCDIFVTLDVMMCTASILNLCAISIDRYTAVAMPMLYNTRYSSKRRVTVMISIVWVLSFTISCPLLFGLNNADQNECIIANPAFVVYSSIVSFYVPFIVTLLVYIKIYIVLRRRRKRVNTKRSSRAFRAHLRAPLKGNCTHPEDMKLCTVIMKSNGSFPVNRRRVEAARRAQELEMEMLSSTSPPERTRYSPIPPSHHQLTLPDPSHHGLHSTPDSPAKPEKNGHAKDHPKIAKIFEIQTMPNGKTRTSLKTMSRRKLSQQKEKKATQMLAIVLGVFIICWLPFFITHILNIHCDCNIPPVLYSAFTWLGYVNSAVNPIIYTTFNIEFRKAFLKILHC
In short: as §1

[3] = target: T3, cloned human or rodent CNS receptors, channels, and transporters (PDSP panel) (Homo sapiens, UniProt P21728); conditions: D1, primary assay
T3 construct: expressed in transfected cells
T3 sequence (P21728 whole entry): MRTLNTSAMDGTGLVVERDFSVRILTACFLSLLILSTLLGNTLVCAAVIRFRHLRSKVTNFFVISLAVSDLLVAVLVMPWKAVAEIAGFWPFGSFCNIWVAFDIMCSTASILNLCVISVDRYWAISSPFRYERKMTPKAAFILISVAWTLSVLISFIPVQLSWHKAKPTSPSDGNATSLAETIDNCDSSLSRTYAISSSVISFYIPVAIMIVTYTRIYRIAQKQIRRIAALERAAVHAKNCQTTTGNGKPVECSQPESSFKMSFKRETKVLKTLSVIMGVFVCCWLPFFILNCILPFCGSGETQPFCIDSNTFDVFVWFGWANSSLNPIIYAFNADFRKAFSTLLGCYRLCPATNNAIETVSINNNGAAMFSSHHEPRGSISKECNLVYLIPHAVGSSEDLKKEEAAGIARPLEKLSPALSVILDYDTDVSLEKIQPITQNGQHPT
In short: as §1

[4] = target: T4, cloned human or rodent CNS receptors, channels, and transporters (PDSP panel) (Homo sapiens, UniProt P21918); conditions: D5, primary assay
T4 construct: expressed in transfected cells
T4 sequence (P21918 whole entry): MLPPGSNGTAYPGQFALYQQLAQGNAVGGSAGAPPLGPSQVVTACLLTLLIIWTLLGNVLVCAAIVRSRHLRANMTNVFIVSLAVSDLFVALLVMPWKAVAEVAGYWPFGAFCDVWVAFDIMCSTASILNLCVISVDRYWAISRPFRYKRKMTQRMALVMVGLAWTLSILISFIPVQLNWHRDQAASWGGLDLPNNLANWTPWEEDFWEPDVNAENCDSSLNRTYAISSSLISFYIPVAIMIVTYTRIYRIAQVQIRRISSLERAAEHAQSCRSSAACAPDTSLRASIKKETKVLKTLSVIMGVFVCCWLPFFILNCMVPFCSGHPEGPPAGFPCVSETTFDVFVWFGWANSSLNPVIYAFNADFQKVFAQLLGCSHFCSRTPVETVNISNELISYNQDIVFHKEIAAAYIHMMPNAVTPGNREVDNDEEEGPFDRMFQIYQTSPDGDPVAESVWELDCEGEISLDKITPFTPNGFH
In short: as §1

[5] = target: T5, cloned human or rodent CNS receptors, channels, and transporters (PDSP panel) (Homo sapiens, UniProt P28223); conditions: 5-HT2A, primary assay
T5 construct: expressed in transfected cells
T5 sequence (P28223 whole entry): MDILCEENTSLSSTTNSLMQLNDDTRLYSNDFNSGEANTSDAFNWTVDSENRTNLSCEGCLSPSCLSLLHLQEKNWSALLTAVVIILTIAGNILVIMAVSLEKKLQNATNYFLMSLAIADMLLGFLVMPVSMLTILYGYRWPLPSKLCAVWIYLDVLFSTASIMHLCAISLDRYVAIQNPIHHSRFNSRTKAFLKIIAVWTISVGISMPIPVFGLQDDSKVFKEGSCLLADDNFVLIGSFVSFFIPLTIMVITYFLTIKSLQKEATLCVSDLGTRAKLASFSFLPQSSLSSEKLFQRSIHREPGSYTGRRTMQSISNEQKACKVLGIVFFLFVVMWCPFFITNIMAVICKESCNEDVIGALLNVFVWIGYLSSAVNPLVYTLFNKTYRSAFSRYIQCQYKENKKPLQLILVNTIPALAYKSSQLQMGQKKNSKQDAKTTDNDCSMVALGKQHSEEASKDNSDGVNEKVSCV
In short: as §1

[6] = target: T6, cloned human or rodent CNS receptors, channels, and transporters (PDSP panel) (Homo sapiens, UniProt P34969); conditions: 5-HT7A, primary assay
T6 construct: expressed in transfected cells
T6 sequence (P34969 whole entry): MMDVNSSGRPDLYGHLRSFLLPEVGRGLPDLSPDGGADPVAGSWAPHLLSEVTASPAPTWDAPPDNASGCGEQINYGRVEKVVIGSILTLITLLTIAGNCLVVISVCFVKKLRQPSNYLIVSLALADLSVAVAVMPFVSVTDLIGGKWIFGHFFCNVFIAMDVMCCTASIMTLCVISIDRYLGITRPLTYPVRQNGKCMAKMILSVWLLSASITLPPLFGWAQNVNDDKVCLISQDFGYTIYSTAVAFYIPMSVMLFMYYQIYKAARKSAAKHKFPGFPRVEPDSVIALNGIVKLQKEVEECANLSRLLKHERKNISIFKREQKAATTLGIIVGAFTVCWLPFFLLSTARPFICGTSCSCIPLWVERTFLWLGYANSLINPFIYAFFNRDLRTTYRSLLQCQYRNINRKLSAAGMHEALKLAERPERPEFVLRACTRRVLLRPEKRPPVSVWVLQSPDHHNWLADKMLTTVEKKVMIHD
In short: as §1

[7] = target: T7, cloned human or rodent CNS receptors, channels, and transporters (PDSP panel) (Homo sapiens, UniProt P35367); conditions: H1, primary assay
T7 construct: expressed in transfected cells
T7 sequence (P35367 whole entry): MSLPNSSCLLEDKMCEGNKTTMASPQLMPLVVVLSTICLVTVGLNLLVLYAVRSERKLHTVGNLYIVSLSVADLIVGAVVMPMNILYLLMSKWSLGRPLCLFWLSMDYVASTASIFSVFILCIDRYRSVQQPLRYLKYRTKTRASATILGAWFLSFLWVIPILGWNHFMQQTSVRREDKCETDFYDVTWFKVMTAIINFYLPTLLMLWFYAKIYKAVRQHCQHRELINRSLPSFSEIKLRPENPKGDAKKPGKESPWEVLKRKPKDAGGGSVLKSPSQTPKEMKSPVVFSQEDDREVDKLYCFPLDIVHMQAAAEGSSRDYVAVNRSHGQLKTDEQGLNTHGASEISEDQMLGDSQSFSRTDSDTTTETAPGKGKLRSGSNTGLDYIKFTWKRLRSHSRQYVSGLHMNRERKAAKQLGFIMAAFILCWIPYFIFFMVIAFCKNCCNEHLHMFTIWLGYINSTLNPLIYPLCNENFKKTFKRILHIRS
In short: as §1

[8] = target: T8, cloned human or rodent CNS receptors, channels, and transporters (PDSP panel) (Homo sapiens, UniProt P41145); conditions: KOR, primary assay
T8 construct: expressed in transfected cells
T8 sequence (P41145 whole entry): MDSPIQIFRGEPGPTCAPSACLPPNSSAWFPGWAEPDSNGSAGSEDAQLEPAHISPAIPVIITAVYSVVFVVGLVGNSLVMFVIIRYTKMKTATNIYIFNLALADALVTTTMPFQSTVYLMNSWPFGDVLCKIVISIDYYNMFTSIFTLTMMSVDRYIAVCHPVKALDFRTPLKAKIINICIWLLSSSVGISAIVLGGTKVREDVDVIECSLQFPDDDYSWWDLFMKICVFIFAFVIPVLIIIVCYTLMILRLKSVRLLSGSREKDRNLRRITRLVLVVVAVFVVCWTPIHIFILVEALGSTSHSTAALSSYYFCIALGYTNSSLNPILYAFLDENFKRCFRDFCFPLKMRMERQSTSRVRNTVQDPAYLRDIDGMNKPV
In short: as §1

[9] = target: T9, cloned human or rodent CNS receptors, channels, and transporters (PDSP panel) (Rattus norvegicus, UniProt P16257); conditions: PBR, primary assay
T9 construct: expressed in transfected cells
In short: as §1

[10] = test system: cloned human or rodent CNS receptors, channels, and transporters (PDSP panel); conditions: primary assay; for Mean %: mean inhibition; for Inhibition 1: replicate 1; for Inhibition 2: replicate 2; for Inhibition 3: replicate 3; for Inhibition 4: replicate 4
In short: as §1

CC(=O)N1CCC(NC(=O)NC23CC4CC(CC(C4)C2)C3)CC1 [UNC10302683A, AR9281]
Mean % ([1]; mean inhibition): 7.62%
Inhibition 1 ([1]; replicate 1): 23.24%
Inhibition 2 ([1]; replicate 2): 6.49%
Inhibition 3 ([1]; replicate 3): -4.8%
Inhibition 4 ([1]; replicate 4): 5.55%
Mean % ([2]; mean inhibition): -5.85%
Inhibition 1 ([2]; replicate 1): -4.63%
Inhibition 2 ([2]; replicate 2): -2.98%
Inhibition 3 ([2]; replicate 3): -11.83%
Inhibition 4 ([2]; replicate 4): -3.95%
Mean % ([3]; mean inhibition): -14.57%
Inhibition 1 ([3]; replicate 1): -3.64%
Inhibition 2 ([3]; replicate 2): -20.64%
Inhibition 3 ([3]; replicate 3): -32.3%
Inhibition 4 ([3]; replicate 4): -1.7%
Mean % ([4]; mean inhibition): -11.88%
Inhibition 1 ([4]; replicate 1): -7.18%
Inhibition 2 ([4]; replicate 2): -13.14%
Inhibition 3 ([4]; replicate 3): -18.03%
Inhibition 4 ([4]; replicate 4): -9.17%
Mean % ([5]; mean inhibition): -3.07%
Inhibition 1 ([5]; replicate 1): -2.98%
Inhibition 2 ([5]; replicate 2): 1.29%
Inhibition 3 ([5]; replicate 3): -10.71%
Inhibition 4 ([5]; replicate 4): 0.14%
Mean % ([6]; mean inhibition): 20.3%
Inhibition 1 ([6]; replicate 1): 4.73%
Inhibition 2 ([6]; replicate 2): 29.98%
Inhibition 3 ([6]; replicate 3): 12.78%
Inhibition 4 ([6]; replicate 4): 33.7%
Mean % ([7]; mean inhibition): 76.51%
Inhibition 1 ([7]; replicate 1): 98.85%
Inhibition 2 ([7]; replicate 2): 86%
Inhibition 3 ([7]; replicate 3): 68.77%
Inhibition 4 ([7]; replicate 4): 52.43%
Mean % ([8]; mean inhibition): -25.19%
Inhibition 1 ([8]; replicate 1): -27.43%
Inhibition 2 ([8]; replicate 2): -29%
Inhibition 3 ([8]; replicate 3): -23.06%
Inhibition 4 ([8]; replicate 4): -21.27%
Inhibition 1 ([9]; replicate 1): 10.97% and 6.98%
Inhibition 2 ([9]; replicate 2): -9.87% and 57.06%
Inhibition 3 ([9]; replicate 3): -4.95% and 7.94%
Inhibition 4 ([9]; replicate 4): -4.51% and 19.02%
Mean % ([10]; Alpha1A): -5.99%
Inhibition 1 ([10]; Alpha1A): 5.7%
Inhibition 2 ([10]; Alpha1A): -8.88%
Inhibition 3 ([10]; Alpha1A): -13.37%
Inhibition 4 ([10]; Alpha1A): -7.39%
Mean % ([10]; Alpha2A): -4.95%
Inhibition 1 ([10]; Alpha2A): 1.83%
Inhibition 2 ([10]; Alpha2A): 1.33%
Inhibition 3 ([10]; Alpha2A): -3.6%
Inhibition 4 ([10]; Alpha2A): -19.37%
Mean % ([10]; Alpha2C): -1.59%
Inhibition 1 ([10]; Alpha2C): 8.16%
Inhibition 2 ([10]; Alpha2C): -7.23%
Inhibition 3 ([10]; Alpha2C): -5.47%
Inhibition 4 ([10]; Alpha2C): -1.81%
Mean % ([10]; BZP Rat Brain Site): -1.68%
Inhibition 1 ([10]; BZP Rat Brain Site): -9.6%
Inhibition 2 ([10]; BZP Rat Brain Site): -7.42%
Inhibition 3 ([10]; BZP Rat Brain Site): 1.02%
Inhibition 4 ([10]; BZP Rat Brain Site): 9.27%
Mean % ([10]; DOR): -7.7%
Inhibition 1 ([10]; DOR): -16.42%
Inhibition 2 ([10]; DOR): -2.69%
Inhibition 3 ([10]; DOR): 0.93%
Inhibition 4 ([10]; DOR): -12.63%
Inhibition 1 ([10]; GABAA): 12.11% and 21.01%
Inhibition 2 ([10]; GABAA): 4.71% and -10.34%
Inhibition 3 ([10]; GABAA): 1.76% and -2.77%
Inhibition 4 ([10]; GABAA): 5.45% and -49.8%
Mean % ([10]; H3): 8.09%
Inhibition 1 ([10]; H3): 9.84%
Inhibition 2 ([10]; H3): -10.86%
Inhibition 3 ([10]; H3): 12.17%
Inhibition 4 ([10]; H3): 21.2%
Mean % ([10]; H4): -2.1%
Inhibition 1 ([10]; H4): -0.42%
Inhibition 2 ([10]; H4): -2.58%
Inhibition 3 ([10]; H4): -25.38%
Inhibition 4 ([10]; H4): 19.98%
Mean % ([10]; Sigma 1): 8.41%
Mean % ([10]; Sigma 2): -5.79%
